# According to the Deep4Chem optical property database:
# Test: solvent given as SMILES
smiles,measurement,setting,value
O=Cc1ccc(-c2cccc(-c3nc4ccccc4s3)c2O)s1,emission maximum,in CCO,576 nm
same,emission maximum,in ClCCl,566 nm
same,emission maximum,in O,595 nm
Cc1cc(C)c(B(c2cc(-c3ccccc3)sc2-c2sc(-c3ccccc3)cc2P(=O)(c2ccccc2)c2ccccc2)c2c(C)cc(C)cc2C)c(C)c1,emission maximum,in CO,558 nm
CCCCCCCCCCOc1cc(OCCCCCCCCCC)cc(C2=C3C(/C=C/c4ccc(OC)cc4)=CC(/C=C/c4ccc(OC)cc4)=[N+]3[B-](F)(F)n3c(/C=C/c4ccc(OC)cc4)cc(C=Cc4ccc(OC)cc4)c32)c1,emission maximum,in ClC(Cl)Cl,710 nm
Cc1cc(-c2ccc(-c3nc4ccccc4[nH]3)cc2)c(C)cc1-c1ccc(-c2nc3ccccc3[nH]2)cc1,emission maximum,in CN(C)C=O,401 nm
F[B-]1(F)Oc2c(-c3cccc4c3O[B-](F)(F)[n+]3c(-c5ccccc5)c(-c5ccccc5)n(-c5ccc(C(F)(F)F)cc5)c3-4)cccc2-c2n(-c3ccc(C(F)(F)F)cc3)c(-c3ccccc3)c(-c3ccccc3)[n+]21,emission maximum,in C1CCOC1,399 nm
c1ccc2c(c1)-c1ccccc1C21c2ccccc2-c2ccncc21,emission maximum,in CC1CCCO1,348 nm
COc1cc2c3c4c(c5ccc(C(C)(C)C)cc5c5c(OC)c(OC)c(OC)c(c2c(OC)c1OC)c45)=[N+]1C3=Nc2c3c4cc(OC)c(OC)c(OC)c4c4c(OC)c(OC)c(OC)c5c6cc(C(C)(C)C)ccc6c(c3c54)n2[B-]1(F)F,emission maximum,in Cc1ccccc1,873 nm
CC1(C)c2ccccc2N(c2ccc3c(c2)C(c2ccccc2)(c2ccccc2)c2cc(N4c5ccccc5C(C)(C)c5ccccc54)ccc2S3(=O)=O)c2ccccc21,emission maximum,in Cc1ccccc1,448 nm
CN(C)CCCN1c2ccccc2Sc2ccc(Cl)cc21,emission maximum,in CC#N,451 nm
same,emission maximum,in CO,449 nm
same,emission maximum,in O,453 nm
CCN(CC)c1ccc(-c2ccc(-c3nc(N4CCOCC4)c4ccccc4n3)s2)cc1,emission maximum,in CC#N,544 nm
same,emission maximum,in Cc1ccccc1,476 nm
CC1=c2c3c4cccc5cccc(c=3c(C)[n+]2[B-](F)(F)n2c(C)c3cc6c(-c7ccccc7)c7c(c(-c8ccccc8)c6cc3c21)-c1cccc2cccc-7c12)c54,emission maximum,in ClCCl,695 nm
CN(C)c1ccc(/C=C/C(=O)O)cc1,emission maximum,in C1CCCCC1,399 nm
same,emission maximum,in C1CCOC1,418 nm
same,emission maximum,in C1COCCO1,414 nm
same,emission maximum,in CC#N,445 nm
same,emission maximum,in CCCCO,439 nm
same,emission maximum,in CCCO,441 nm
same,emission maximum,in CCOC(C)=O,421 nm
same,emission maximum,in CO,453 nm
same,emission maximum,in Cc1ccccc1,413 nm
same,emission maximum,in O,453 nm
same,emission maximum,in c1ccccc1,416 nm
CN(C)c1ccc(/C=C/c2cc[n+](CCCCC[n+]3ccc(/C=C/c4ccc(N(C)C)cc4)cc3)cc2)cc1,emission maximum,in CC1COC(=O)O1,603 nm
same,emission maximum,in CC#N,605 nm
same,emission maximum,in CC(C)=O,604 nm
same,emission maximum,in CC(C)O,593 nm
same,emission maximum,in CCO,598 nm
same,emission maximum,in CN(C)C=O,607 nm
same,emission maximum,in CO,600 nm
same,emission maximum,in CS(C)=O,610 nm
same,emission maximum,in ClC(Cl)Cl,574 nm
same,emission maximum,in O,597 nm
same,emission maximum,in c1ccncc1,596 nm
Cc1ccc2nc3c(=O)n(C)c(=O)nc-3n(C)c2c1,emission maximum,in CC#N,518 nm
CCCCN1C(=O)c2cc(Oc3ccc(C(C)(C)C)cc3)c3c4c(Oc5ccc(C(C)(C)C)cc5)cc5c(=O)n6c(c7cc(Oc8ccc(C(C)(C)C)cc8)c(c8c(Oc9ccc(C(C)(C)C)cc9)cc(c2c38)C1=O)c4c57)=Cc1ccc2ccccc2[n+]1[B-]6(F)F,emission maximum,in ClCCl,684 nm
CN(C)c1ccc(/C=C/c2nc3cc(Br)ccc3nc2-c2ccccc2)cc1,emission maximum,in C1COCCO1,555 nm
same,emission maximum,in CC#N,643 nm
same,emission maximum,in ClCCl,601 nm
Cc1ccc(-n2c(-c3ccccc3N)nc3c4ccccc4c4ccccc4c32)cc1,emission maximum,in Cc1ccccc1,396 nm
CCOC(=O)COc1ccc(/C=C/C2=C3c4ccccc4C(c4[nH]c(C)cc4C)=[N+]3[B-](F)(F)n3c(/C=C/c4ccc(OCC(=O)OCC)cc4)cc(C)c32)cc1,emission maximum,in C1CCOC1,730 nm
same,emission maximum,in CC#N,727 nm
same,emission maximum,in CCCCCC,731 nm
same,emission maximum,in CO,726 nm
same,emission maximum,in Cc1ccccc1,735 nm
same,emission maximum,in ClCCl,733 nm
O=C(O)c1ccc2cc3cc(C(=O)O)ccc3cc2c1,emission maximum,in C1CCOC1,419 nm
same,emission maximum,in CN(C)C=O,423 nm
CC(C)(C)c1ccc(-n2c(-c3ccc(N(c4ccc(-c5ccc(N(c6ccc(-c7nc8c9ccccc9c9ccccc9c8n7-c7ccc(C(C)(C)C)cc7)cc6)c6ccc(-c7nc8c9ccccc9c9ccccc9c8n7-c7ccc(C(C)(C)C)cc7)cc6)cc5)cc4)c4ccc(-c5nc6c7ccccc7c7ccccc7c6n5-c5ccc(C(C)(C)C)cc5)cc4)cc3)nc3c4ccccc4c4ccccc4c32)cc1,emission maximum,in ClCCl,430 nm
Cc1cc(C)cc(C)c1,emission maximum,in C1CCCCC1,294.72 nm
c1cc2ccc3[se]c4ccc5cccc6c(c1)c2c3c4c56,emission maximum,in ClC(Cl)Cl,424 nm
COc1ccc(/C=C/c2cc(/C=C/c3ccc(N(c4ccccc4)c4ccccc4)cc3)nc(/C=C/c3ccc(N(C)C)cc3)n2)cc1,emission maximum,in C1CCOC1,436 nm
same,emission maximum,in CC#N,463 nm
same,emission maximum,in CC(C)=O,452 nm
same,emission maximum,in CCCCCCC,398 nm
same,emission maximum,in CS(C)=O,485 nm
same,emission maximum,in Cc1ccccc1,411 nm
same,emission maximum,in ClCCl,548 nm
CCCCC(CC)COc1ccc2nc(-c3ccc(-c4ccc(OC)cc4)s3)sc2c1 (centres undefined),emission maximum,in ClCCl,434 nm
CC(=O)OCCN1C(=O)c2cccc3c(Oc4ccc(C#N)cc4)ccc(c23)C1=O,emission maximum,in ClC(Cl)Cl,410 nm
CCCCCN(c1ccccc1)c1ccc2c(c1)C(CC)(CC)c1cc(/C=C/c3ccc(/C=C(\C#N)C(=O)O)s3)ccc1-2,emission maximum,in C1CCOC1,597 nm
same,emission maximum,in C1COCCO1,618 nm
same,emission maximum,in CC#N,496 nm
same,emission maximum,in CC(C)=O,574 nm
same,emission maximum,in CCOC(C)=O,580 nm
same,emission maximum,in CN(C)C=O,504 nm
same,emission maximum,in CS(C)=O,517 nm
same,emission maximum,in ClCCl,584 nm
CC(=O)c1c(N[C@H](C(=O)O)C(C)C)c2ccc(N(C)C)cc2oc1=O,emission maximum,in ClCCl,446 nm
c1ccc(-n2c3ccccc3c3cc(-n4ccc5cc(-c6ccc7c(c6)C(c6ccccc6)(c6ccccc6)c6ccccc6-7)ccc54)ccc32)cc1,emission maximum,in ClCCl,378 nm
O=c1c2cc(S(=O)(=O)O)ccc2[nH]c2ccc(S(=O)(=O)O)cc12,emission maximum,in CS(C)=O,417 nm
same,emission maximum,in O,417 nm
c1ccc(C2c3ccccc3-c3cc4c(cc32)-c2ccccc2C4c2ccccc2)cc1 (centres undefined),emission maximum,in ClCCl,360 nm
CCCCCCCCCCc1cc(-c2cc(CCCCCCCCCC)c(-c3cccs3)s2)sc1-c1cccs1,emission maximum,in CCCCCCCCCCCCCC,481 nm
CCCCOC(=O)/C(C#N)=C1\C(=CC2=[N+](C)c3ccccc3C2(C)C)C([O-])=C1C=C1N(C)c2ccccc2C1(C)C,emission maximum,in ClC(Cl)Cl,708 nm
CC[B-]1(CC)c2cccc3cc4ccccc4c(c23)-c2cccc(C)[n+]21,emission maximum,in ClCCl,538 nm
COc1ccc(-c2cnc(-c3cccnc3)o2)cc1OC,emission maximum,in ClCCl,420 nm
CCOC(=O)/C=C/C1=[N+]2C(=C(c3c(C)cc(C)cc3C)c3ccc(/C=C/C(=O)OCC)n3[B-]2(F)F)C=C1,emission maximum,in ClCCl,602 nm
CN(C)c1ccc(/C=C/c2nc(/C=C/c3ccc(N(C)C)cc3)c3ccccc3n2)cc1,emission maximum,in C1CCCCC1,503 nm
same,emission maximum,in C1CCOC1,540 nm
same,emission maximum,in CC#N,570 nm
same,emission maximum,in CS(C)=O,580 nm
same,emission maximum,in ClCCl,545 nm
CN(C)c1ccc(/C=C/c2cc(/C=C/c3ccc(N(C)C)cc3)ncn2)cc1,emission maximum,in ClCCl,530 nm
Fc1ccc(N(c2ccccc2)c2ccc3ccc4c(N(c5ccccc5)c5ccc(F)cc5)ccc5ccc2c3c54)cc1,emission maximum,in ClCCl,470 nm
